Experimental data taken from ChEMBL document CHEMBL5625206, “Design, synthesis, and evaluation of novel pleuromutilin aryl acrylate derivatives as promising broad-spectrum antibiotics especially for combatting multi-drug resistant gram-negative bacteria” (Eur J Med Chem, 2023).
Values after ≈ are worked out from the molar mass of the structure shown.

Legend:
Format in all cases: functional
[1] = test system: Staphylococcus aureus; test: Antibacterial activity against Staphylococcus aureus ATCC 29213 assessed as bacterial growth inhibition incubated for 24 hrs by CLSI based broth microdilution method
[2] = test system: Escherichia coli; test: Antibacterial activity against Escherichia coli ATCC 25922 assessed as bacterial growth inhibition incubated for 24 hrs by CLSI based broth microdilution method
[3] = test system: Staphylococcus epidermidis; test: Antibacterial activity against Staphylococcus epidermidis ATCC 12228 assessed as bacterial growth inhibition incubated for 24 hrs by CLSI based broth microdilution method
[4] = test system: Acinetobacter baumannii; test: Antibacterial activity against Acinetobacter baumannii ATCC 19606 assessed as bacterial growth inhibition incubated for 24 hrs by CLSI based broth microdilution method
[5] = test system: Staphylococcus aureus; test: Antibacterial activity against methicillin-resistant Staphylococcus aureus ATCC 33591 assessed as bacterial growth inhibition incubated for 24 hrs by CLSI based broth microdilution method
[6] = test system: Staphylococcus aureus; test: Antibacterial activity against Staphylococcus aureus ATCC 25923 assessed as bacterial growth inhibition incubated for 24 hrs by CLSI based broth microdilution method

Compound | MIC [1] [mg/L] | MIC [2] [mg/L] | MIC [3] [mg/L] | MIC [4] [mg/L] | MIC [5] [mg/L] | MIC [6] [mg/L]
C=C[C@]1(C)C[C@@H](OC(=O)COC(=O)/C=C/c2ccc(Cn3ccnc3)cc2)[C@]2(C)[C@H](C)CC[C@]3(CCC(=O)[C@H]32)[C@@H](C)[C@@H]1O | 16 (≈ 27.2 µM) | 64 (≈ 109 µM) | 16 (≈ 27.2 µM) | 128 (≈ 217 µM) | 32 (≈ 54.4 µM) | 8 (≈ 13.6 µM)
C=C[C@]1(C)C[C@@H](OC(=O)COC(=O)/C=C/c2cc(Br)ccc2F)[C@]2(C)[C@H](C)CC[C@]3(CCC(=O)[C@H]32)[C@@H](C)[C@@H]1O | 32 (≈ 52.8 µM) | 64 (≈ 106 µM) | 64 (≈ 106 µM) | 128 (≈ 211 µM) | 64 (≈ 106 µM) | 16 (≈ 26.4 µM)
C=C[C@]1(C)C[C@@H](OC(=O)COC(=O)/C=C/c2ccc(F)c(F)c2F)[C@]2(C)[C@H](C)CC[C@]3(CCC(=O)[C@H]32)[C@@H](C)[C@@H]1O | 64 (≈ 114 µM) | 64 (≈ 114 µM) | 16 (≈ 28.4 µM) | 128 (≈ 228 µM) | 128 (≈ 228 µM) | 32 (≈ 56.9 µM)
C=C[C@]1(C)C[C@@H](OC(=O)COC(=O)/C=C/c2ccc3ccccc3c2)[C@]2(C)[C@H](C)CC[C@]3(CCC(=O)[C@H]32)[C@@H](C)[C@@H]1O | 32 (≈ 57.3 µM) | > 128 | 32 (≈ 57.3 µM) | > 128 | 128 (≈ 229 µM) | 16 (≈ 28.6 µM)
C=C[C@]1(C)C[C@@H](OC(=O)COC(=O)/C=C/c2ccco2)[C@]2(C)[C@H](C)CC[C@]3(CCC(=O)[C@H]32)[C@@H](C)[C@@H]1O | 8 (≈ 16 µM) | 64 (≈ 128 µM) | 8 (≈ 16 µM) | 64 (≈ 128 µM) | 32 (≈ 64.2 µM) | 64 (≈ 128 µM)
C=C[C@]1(C)C[C@@H](OC(=O)COC(=O)/C=C/c2ccc(OCc3ccccc3)cc2)[C@]2(C)[C@H](C)CC[C@]3(CCC(=O)[C@H]32)[C@@H](C)[C@@H]1O | 32 (≈ 52.1 µM) | > 128 | 32 (≈ 52.1 µM) | 64 (≈ 104 µM) | 128 (≈ 208 µM) | 16 (≈ 26 µM)
C=C[C@]1(C)C[C@@H](OC(=O)COC(=O)/C=C/c2ccc(C(F)(F)F)cc2)[C@]2(C)[C@H](C)CC[C@]3(CCC(=O)[C@H]32)[C@@H](C)[C@@H]1O | 16 (≈ 27.7 µM) | 64 (≈ 111 µM) | 8 (≈ 13.9 µM) | > 128 | 128 (≈ 222 µM) | 16 (≈ 27.7 µM)
C=C[C@]1(C)C[C@@H](OC(=O)COC(=O)/C=C/c2ccc(F)c(Cl)c2)[C@]2(C)[C@H](C)CC[C@]3(CCC(=O)[C@H]32)[C@@H](C)[C@@H]1O | 32 (≈ 57 µM) | 64 (≈ 114 µM) | 32 (≈ 57 µM) | > 128 | 64 (≈ 114 µM) | 16 (≈ 28.5 µM)
C=C[C@]1(C)C[C@@H](OC(=O)COC(=O)/C=C/c2ccc(OC)cc2)[C@]2(C)[C@H](C)CC[C@]3(CCC(=O)[C@H]32)[C@@H](C)[C@@H]1O | 8 (≈ 14.9 µM) | 32 (≈ 59.4 µM) | 2 (≈ 3.71 µM) | > 128 | 16 (≈ 29.7 µM) | 4 (≈ 7.43 µM)
C=C[C@]1(C)C[C@@H](OC(=O)COC(=O)/C=C/c2cccc(Cl)c2)[C@]2(C)[C@H](C)CC[C@]3(CCC(=O)[C@H]32)[C@@H](C)[C@@H]1O | 32 (≈ 58.9 µM) | 64 (≈ 118 µM) | 8 (≈ 14.7 µM) | 128 (≈ 236 µM) | 32 (≈ 58.9 µM) | 16 (≈ 29.5 µM)
C=C[C@]1(C)C[C@@H](OC(=O)COC(=O)/C=C/c2ccc(C(F)(F)F)cc2F)[C@]2(C)[C@H](C)CC[C@]3(CCC(=O)[C@H]32)[C@@H](C)[C@@H]1O | 16 (≈ 26.9 µM) | 128 (≈ 215 µM) | 16 (≈ 26.9 µM) | > 128 | 64 (≈ 108 µM) | 8 (≈ 13.5 µM)
C=C[C@]1(C)C[C@@H](OC(=O)COC(=O)/C=C/c2ccncc2)[C@]2(C)[C@H](C)CC[C@]3(CCC(=O)[C@H]32)[C@@H](C)[C@@H]1O | 16 (≈ 31.4 µM) | 64 (≈ 126 µM) | 4 (≈ 7.85 µM) | 64 (≈ 126 µM) | 32 (≈ 62.8 µM) | 8 (≈ 15.7 µM)
C=C[C@]1(C)C[C@@H](OC(=O)COC(=O)/C=C/c2ccc(OC)c(OC)c2)[C@]2(C)[C@H](C)CC[C@]3(CCC(=O)[C@H]32)[C@@H](C)[C@@H]1O | 8 (≈ 14.1 µM) | 64 (≈ 113 µM) | 16 (≈ 28.1 µM) | > 128 | 32 (≈ 56.3 µM) | 4 (≈ 7.03 µM)
C=C[C@]1(C)C[C@@H](OC(=O)COC(=O)/C=C/c2ccccc2C(F)(F)F)[C@]2(C)[C@H](C)CC[C@]3(CCC(=O)[C@H]32)[C@@H](C)[C@@H]1O | 64 (≈ 111 µM) | > 128 | 64 (≈ 111 µM) | > 128 | 128 (≈ 222 µM) | 32 (≈ 55.5 µM)
C=C[C@]1(C)C[C@@H](OC(=O)COC(=O)/C=C/c2ccccc2)[C@]2(C)[C@H](C)CC[C@]3(CCC(=O)[C@H]32)[C@@H](C)[C@@H]1O | 16 (≈ 31.5 µM) | 128 (≈ 252 µM) | 16 (≈ 31.5 µM) | > 128 | 32 (≈ 62.9 µM) | 4 (≈ 7.86 µM)
C=C[C@]1(C)C[C@@H](OC(=O)COC(=O)/C=C/c2ccc(-c3ccccc3)cc2)[C@]2(C)[C@H](C)CC[C@]3(CCC(=O)[C@H]32)[C@@H](C)[C@@H]1O | 32 (≈ 54.7 µM) | > 128 | 32 (≈ 54.7 µM) | > 128 | 64 (≈ 109 µM) | 64 (≈ 109 µM)
C=C[C@]1(C)C[C@@H](OC(=O)COC(=O)/C=C/c2cccc(F)c2)[C@]2(C)[C@H](C)CC[C@]3(CCC(=O)[C@H]32)[C@@H](C)[C@@H]1O | 32 (≈ 60.8 µM) | > 128 | 32 (≈ 60.8 µM) | > 128 | 64 (≈ 122 µM) | 16 (≈ 30.4 µM)
C=C[C@]1(C)C[C@@H](OC(=O)COC(=O)/C=C/c2cccc(C(F)(F)F)c2)[C@]2(C)[C@H](C)CC[C@]3(CCC(=O)[C@H]32)[C@@H](C)[C@@H]1O | 64 (≈ 111 µM) | 64 (≈ 111 µM) | 64 (≈ 111 µM) | 128 (≈ 222 µM) | 256 (≈ 444 µM) | 32 (≈ 55.5 µM)
C=C[C@]1(C)C[C@@H](OC(=O)COC(=O)/C=C/c2ccc(F)cc2)[C@]2(C)[C@H](C)CC[C@]3(CCC(=O)[C@H]32)[C@@H](C)[C@@H]1O | 32 (≈ 60.8 µM) | 128 (≈ 243 µM) | 32 (≈ 60.8 µM) | 128 (≈ 243 µM) | 32 (≈ 60.8 µM) | 16 (≈ 30.4 µM)
C=C[C@]1(C)C[C@@H](OC(=O)COC(=O)/C=C/c2cccs2)[C@]2(C)[C@H](C)CC[C@]3(CCC(=O)[C@H]32)[C@@H](C)[C@@H]1O | 16 (≈ 31.1 µM) | 32 (≈ 62.2 µM) | 16 (≈ 31.1 µM) | 64 (≈ 124 µM) | 64 (≈ 124 µM) | 32 (≈ 62.2 µM)
C=C[C@]1(C)C[C@@H](OC(=O)COC(=O)/C=C/c2ccc(C#N)cc2)[C@]2(C)[C@H](C)CC[C@]3(CCC(=O)[C@H]32)[C@@H](C)[C@@H]1O | 64 (≈ 120 µM) | > 128 | 64 (≈ 120 µM) | > 128 | 64 (≈ 120 µM) | 32 (≈ 60 µM)
C=C[C@]1(C)C[C@@H](OC(=O)COC(=O)/C=C/c2ccsc2)[C@]2(C)[C@H](C)CC[C@]3(CCC(=O)[C@H]32)[C@@H](C)[C@@H]1O | 8 (≈ 15.5 µM) | 32 (≈ 62.2 µM) | 16 (≈ 31.1 µM) | 32 (≈ 62.2 µM) | 64 (≈ 124 µM) | 32 (≈ 62.2 µM)
